Measurements: patent US12433889B2 (priority 2021, dated 2025)
≈ marks a conversion by molar mass, not a printed value.

Assays:
[1] = tested on: M. intracellulare DSM 43223; test: MIC by microbroth dilution, with and without CF sputum; type: cell-based; settings: Mycobacterium intracellulare
[2] = tested on: M. abscessus B18104072; test: as above; type: cell-based; settings: Mycobacteroides abscessus
[3] = humans, microcrystalline suspension in an oil-wax base; cited from earlier work
[4] = tested on: M. abscessus B15029863; test: MIC by microbroth dilution, with and without CF sputum; type: cell-based; settings: Mycobacteroides abscessus
[5] = BCS class II; cited from earlier work
[6] = tested on: M. abscessus CIP104536; test: MIC by microbroth dilution, with and without CF sputum; type: cell-based; settings: Mycobacteroides abscessus
[7] = tested on: M. avium ATCC 700898; test: as above; type: cell-based; settings: Mycobacterium avium
[8] = tested on: M. abscessus B12052284; test: as above; type: cell-based; settings: Mycobacteroides abscessus
[9] = tested on: M. avium B18101968; test: as above; type: cell-based; settings: Mycobacterium avium
[10] = tested on: M. Chimaera CIP 107892; test: as above; type: cell-based; settings: Mycobacterium intracellulare

CC(C)/N=c1\cc2n(-c3ccc(Cl)cc3)c3ccccc3nc-2cc1Nc1ccc(Cl)cc1 [Clofazimine, clofazimine]
MIC ([1]; DSM43223, + SP (10% CF sputum)): > 2 µg/mL
MIC ([1]; DSM43223, absence of sputum): 1 µg/mL (≈ 2.11 µM)
MIC ([2]; B18104072, + SP (10% CF sputum)): > 2 µg/mL
MIC ([2]; B18104072, absence of sputum): 1 µg/mL (≈ 2.11 µM)
absorption after oral administration [3]: 45-62%
MIC ([4]; B15029863, + SP (10% CF sputum)): > 2 µg/mL
MIC ([4]; B15029863, absence of sputum): 2 µg/mL (≈ 4.22 µM)
solubility in water [5]: practically insoluble in water
MIC ([6]; CIP104536, + SP (10% CF sputum)): > 2 µg/mL
MIC ([6]; CIP104536, absence of sputum): 0.25 µg/mL (≈ 0.528 µM)
MIC ([7]; ATCC700898, + SP (10% CF sputum)): > 2 µg/mL
MIC ([7]; ATCC700898, absence of sputum): 0.25 µg/mL (≈ 0.528 µM)
MIC ([8]; B12052284, + SP (10% CF sputum)): > 2 µg/mL
MIC ([8]; B12052284, absence of sputum): 2 µg/mL (≈ 4.22 µM)
MIC ([9]; B18101968, + SP (10% CF sputum)): > 2 µg/mL
MIC ([9]; B18101968, absence of sputum): 0.5 µg/mL (≈ 1.06 µM)
MIC ([10]; CIP107892, + SP (10% CF sputum)): > 2 µg/mL
MIC ([10]; CIP107892, absence of sputum): 0.5 µg/mL (≈ 1.06 µM)
